The values that follow come from article PMC5645785 (Organic & biomolecular chemistry, 2016).

Read-outs that look alike come from different tables or passages of the source.

Experiment [1] has as its target Escherichia coli GS (EcGS) (Escherichia coli, UniProt P0A6U8). Nature of the experiment: EcGS activity, glycogen synthesis direction, absence of ADP. The format is biochemical.
The target in experiment [2] is Sucrose synthase 4 (SuSy4) (Solanum tuberosum, UniProt P10691). Put plainly: SuSy4 activity, sucrose synthesis direction, absence of UDP. The format is biochemical, Solanum tuberosum L.
Chain of Sucrose synthase 4 (SuSy4) (P10691 whole entry): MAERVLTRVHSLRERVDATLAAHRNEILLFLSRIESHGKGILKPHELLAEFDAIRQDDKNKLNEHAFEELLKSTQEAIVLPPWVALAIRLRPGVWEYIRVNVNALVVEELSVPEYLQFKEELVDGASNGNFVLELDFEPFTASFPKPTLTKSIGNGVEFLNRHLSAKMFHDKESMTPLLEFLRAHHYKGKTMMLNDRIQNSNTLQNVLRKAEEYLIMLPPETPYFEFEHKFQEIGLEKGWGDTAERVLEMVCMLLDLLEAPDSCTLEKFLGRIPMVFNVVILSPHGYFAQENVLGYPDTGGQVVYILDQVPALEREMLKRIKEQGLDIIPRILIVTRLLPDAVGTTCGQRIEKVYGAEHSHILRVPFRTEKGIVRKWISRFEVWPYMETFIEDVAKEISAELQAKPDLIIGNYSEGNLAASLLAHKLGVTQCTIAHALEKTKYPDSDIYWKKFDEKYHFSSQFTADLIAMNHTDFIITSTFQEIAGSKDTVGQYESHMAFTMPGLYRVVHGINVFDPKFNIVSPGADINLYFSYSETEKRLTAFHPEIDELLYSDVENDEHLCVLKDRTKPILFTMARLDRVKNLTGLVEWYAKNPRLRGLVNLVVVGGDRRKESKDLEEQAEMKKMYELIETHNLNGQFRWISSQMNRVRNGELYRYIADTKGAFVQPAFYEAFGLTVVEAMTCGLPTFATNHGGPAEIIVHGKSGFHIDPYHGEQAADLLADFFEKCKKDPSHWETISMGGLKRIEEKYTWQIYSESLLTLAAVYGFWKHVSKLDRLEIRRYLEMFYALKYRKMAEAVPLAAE
Experiment [3] addresses T1, Rabbit muscle GPa (RMGPa) (Oryctolagus cuniculus, UniProt P00489).
T1 sequence (P00489 1-843): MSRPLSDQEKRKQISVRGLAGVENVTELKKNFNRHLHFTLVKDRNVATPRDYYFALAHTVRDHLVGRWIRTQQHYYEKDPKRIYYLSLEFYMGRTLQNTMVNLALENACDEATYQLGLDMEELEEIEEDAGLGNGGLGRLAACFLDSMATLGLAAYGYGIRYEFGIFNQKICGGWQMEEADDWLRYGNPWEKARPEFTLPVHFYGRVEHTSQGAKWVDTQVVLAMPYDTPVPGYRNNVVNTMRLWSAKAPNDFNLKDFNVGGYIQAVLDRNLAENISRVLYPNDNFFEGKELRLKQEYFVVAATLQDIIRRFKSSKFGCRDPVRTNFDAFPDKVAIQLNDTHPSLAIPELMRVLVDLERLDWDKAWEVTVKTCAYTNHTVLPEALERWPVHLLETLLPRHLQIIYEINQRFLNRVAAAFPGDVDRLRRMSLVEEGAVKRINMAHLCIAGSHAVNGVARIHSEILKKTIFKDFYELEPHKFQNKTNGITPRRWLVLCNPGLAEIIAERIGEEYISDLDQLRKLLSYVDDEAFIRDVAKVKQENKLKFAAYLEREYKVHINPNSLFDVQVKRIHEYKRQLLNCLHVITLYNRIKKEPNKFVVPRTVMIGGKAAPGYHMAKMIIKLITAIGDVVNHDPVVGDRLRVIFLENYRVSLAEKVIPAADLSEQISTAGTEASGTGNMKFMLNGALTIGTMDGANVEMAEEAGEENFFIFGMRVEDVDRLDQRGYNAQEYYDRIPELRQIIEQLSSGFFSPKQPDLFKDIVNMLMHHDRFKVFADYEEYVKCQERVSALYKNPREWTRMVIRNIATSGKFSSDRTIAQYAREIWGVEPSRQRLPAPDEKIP
Nature of the experiment: RMGPa activity, glycogen phosphorolysis direction. Type of experiment: biochemical. Particulars: read-out: Km of RMGPa.

The test system of experiment [4] is E. coli trehalose-6-phosphate synthase. The settings on record: cited from earlier work; for IC50: read-out: IC50 trehalose-6-phosphate synthase.

Chain of Escherichia coli GS (EcGS) (P0A6U8 whole entry): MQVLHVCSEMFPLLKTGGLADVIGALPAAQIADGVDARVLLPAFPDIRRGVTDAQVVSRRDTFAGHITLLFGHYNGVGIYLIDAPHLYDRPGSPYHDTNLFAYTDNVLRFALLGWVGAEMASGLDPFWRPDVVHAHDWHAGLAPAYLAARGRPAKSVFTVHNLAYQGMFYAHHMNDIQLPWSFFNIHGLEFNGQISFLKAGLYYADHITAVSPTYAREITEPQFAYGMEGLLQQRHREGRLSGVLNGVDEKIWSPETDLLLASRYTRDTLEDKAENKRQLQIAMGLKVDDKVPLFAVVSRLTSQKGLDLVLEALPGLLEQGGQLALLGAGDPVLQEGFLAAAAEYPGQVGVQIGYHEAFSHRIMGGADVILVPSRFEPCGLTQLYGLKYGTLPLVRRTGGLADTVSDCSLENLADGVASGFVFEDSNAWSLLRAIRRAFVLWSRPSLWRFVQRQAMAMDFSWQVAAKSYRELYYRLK

For orientation: Ki means the equilibrium dissociation constant of an inhibitor or competing ligand from its target. `Nc1ncnc2c1ncn2[C@@H]1O[C@H](COP(=O)(O)OP(=O)(O)O)[C@@H](O)[C@H]1O` [ADP]: the inhibition constant (Ki) in experiment [1] (read-out: Ki EcGS, substrate ADPG) was determined as 87 ± 6 µM. For the same compound, the “Type of Inhibition EcGS” value in experiment [1] (with respect to ADPG) is given as “Competitive”.

What is called IC50 is the concentration at which inhibition is half-maximal. Take `OC[C@H]1NC[C@@H](O)[C@@H]1O` [DAB, 1,4-dideoxy-1,4-imino-D-arabinitol]: the results for the IC50 in experiment [2] and in experiment [1] were 246.5 ± 0.1 µM and 1320 ± 10 µM, respectively.

As to `OC[C@@H]1NC[C@H](O)[C@H]1O` [LAB], the “Activity (%) SuSy4” value in experiment [2] (remaining activity, 0.5 mM inhibitor, 5 mM UDPG and 30 mM fructose) worked out at 89%. In addition, the “Activity (%) EcGS” value in experiment [1] (remaining activity, 0.5 mM inhibitor, 2 mM ADPG and 4 mg mL−1 glycogen) is 89%.

In general, Km refers to the concentration of substrate that gives half-maximal velocity. With `O=P(O)(O)O` [Pi, inorganic phosphate], the Km in experiment [3] came to 1410 µM.

In the case of `O=c1ccn([C@@H]2O[C@H](COP(=O)(O)OP(=O)(O)O)[C@@H](O)[C@H]2O)c(=O)[nH]1` [UDP], the Ki in experiment [2] (read-out: Ki SuSy4, substrate UDPG) stood at 145 ± 48 µM. The “Type of Inhibition SuSy4” value in experiment [2] (with respect to UDPG) is reported as “Competitive”.

For the compound validoxylamine-6′-phosphate, in experiment [4] (0.15 mM UDP), the “improvement of IC50 by UDP” value is on record as “ca. 100 fold”. Moreover, the IC50 in experiment [4] (addition of 0.15 mM UDP) is 41 µM; in experiment [4] (without UDP) it was 5300 µM.
